Experimental data published in US20110282056A1, “PROTEIN KINASE INHIBITORS AND USE THEREOF” (priority 2008, published 2011).

Key:
Format in all cases: biochemical
[1] = molecular target: T1, VEGFR3 (Homo sapiens, UniProt P35916); assay: VEGFR3 enzyme activity assay (Caliper LC3000 mobility shift); conditions: 400 uM ATP (Km), 0.4 nM VEGFR3, 90 minutes at RT
T1 construct: purchased Millpore Corp. (Millipore) 14-681
Procedure: (§1) Enzyme activity for VEGFR3, VEGFR2 and Flt3 were measured on the Caliper Life Sciences LC3000 (Hopkinton, Mass.). The system utilizes the principle of electroosmotic flow to separate and quantify the amount of phosphorylated-Fluorescein-labelled-peptide (product) from unphosphorylated-Fluorescein-labelled peptide (substrate). The amount of product and substrate are determined by measuring the peak heights from the electropherogram. The enzyme activity is then quantified by dividing the amount of product by the sum of the product and substrate. The inhibitory activity of a sample is measured by comparing the enzyme activity in the presence of sample versus the enzyme activity in the presence of dimethylsufoxide (DMSO). Specific assay conditions for each enzyme are listed below:
(§2) VEGFR3 assay: The peptide substrate at 1 uM (FITC-KKKKEEIYFFF-CONH2; synthesized at Tufts University, Boston, Mass.) was incubated with 400 uM of ATP, corresponding to the Michaelis-Menten (Km) constant of the enzyme/substrate reaction, and 0.4 nM of VEGFR3 (Millpore Corp., Cat. No. 14-681) for 90 minutes at RT. After 90 minutes, the reaction was stopped by the addition of 10 mM EDTA. The substrate and product were then separated on the LC3000.

[2] = molecular target: T2, VEGFR2 (Homo sapiens, UniProt P35968); assay: VEGFR2 enzyme activity assay (Caliper LC3000 mobility shift); conditions: 160 uM ATP (Km), 1 nM VEGFR2, 90 minutes at RT
T2 construct: purchased BPS Bioscience; San Diego, Calif; 40301
Procedure: as §1
as §2, with “VEGFR2” for “VEGFR3”, “(5-FL-EEPLYWSFPAKKK-CONH2;” for “(FITC-KKKKEEIYFFF-CONH2;”, “160” for “400”, “1” for “0.4”, “VEGFR2 (BPS Bioscience; San Diego, Calif.;” for “VEGFR3 (Millpore Corp.,”, “40301)” for “14-681)”

[3] = molecular target: T3, Flt3 (Homo sapiens, UniProt P36888); assay: Flt3 enzyme activity assay (Caliper LC3000 mobility shift); conditions: 350 uM ATP (Km), 3 nM Flt3, 90 minutes at RT
T3 construct: purchased BPS Bioscience; San Diego, Calif; 40225
T3 sequence (P36888 27-993): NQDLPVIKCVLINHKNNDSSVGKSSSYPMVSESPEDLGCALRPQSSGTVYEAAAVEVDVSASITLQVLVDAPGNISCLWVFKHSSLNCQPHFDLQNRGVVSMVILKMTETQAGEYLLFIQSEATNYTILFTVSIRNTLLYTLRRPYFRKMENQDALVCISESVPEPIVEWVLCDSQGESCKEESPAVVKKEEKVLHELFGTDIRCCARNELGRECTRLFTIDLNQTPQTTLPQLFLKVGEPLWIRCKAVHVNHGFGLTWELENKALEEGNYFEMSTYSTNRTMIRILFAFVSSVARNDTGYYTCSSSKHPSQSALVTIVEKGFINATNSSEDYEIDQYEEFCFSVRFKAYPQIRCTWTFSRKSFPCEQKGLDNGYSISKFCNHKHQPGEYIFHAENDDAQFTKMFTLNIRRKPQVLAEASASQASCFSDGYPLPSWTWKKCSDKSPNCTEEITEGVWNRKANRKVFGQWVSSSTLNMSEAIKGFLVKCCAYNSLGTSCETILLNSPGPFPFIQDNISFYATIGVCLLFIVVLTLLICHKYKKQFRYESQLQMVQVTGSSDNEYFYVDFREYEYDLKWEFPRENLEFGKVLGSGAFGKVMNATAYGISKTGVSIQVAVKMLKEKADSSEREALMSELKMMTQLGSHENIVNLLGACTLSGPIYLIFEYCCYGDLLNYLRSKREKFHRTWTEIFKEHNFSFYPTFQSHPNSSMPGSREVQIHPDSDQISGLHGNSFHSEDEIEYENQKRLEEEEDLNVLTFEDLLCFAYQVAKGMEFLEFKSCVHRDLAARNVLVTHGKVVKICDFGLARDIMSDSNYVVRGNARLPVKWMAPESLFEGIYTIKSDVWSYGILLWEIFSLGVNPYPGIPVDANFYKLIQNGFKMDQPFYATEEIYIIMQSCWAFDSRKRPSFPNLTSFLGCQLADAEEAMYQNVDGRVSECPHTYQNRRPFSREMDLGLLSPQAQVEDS
Procedure: as §1
as §2, with “Flt3” for “VEGFR3”, “(FITC-AHA-UEAIYAAPFAKKK-CONH2;” for “(FITC-KKKKEEIYFFF-CONH2;”, “350” for “400”, “3” for “0.4”, “Flt3 (BPS Bioscience; San Diego, Calif.;” for “VEGFR3 (Millpore Corp.,”, “40225)” for “14-681)”

Measured: IC50

T1 sequence (P35916 25-1363): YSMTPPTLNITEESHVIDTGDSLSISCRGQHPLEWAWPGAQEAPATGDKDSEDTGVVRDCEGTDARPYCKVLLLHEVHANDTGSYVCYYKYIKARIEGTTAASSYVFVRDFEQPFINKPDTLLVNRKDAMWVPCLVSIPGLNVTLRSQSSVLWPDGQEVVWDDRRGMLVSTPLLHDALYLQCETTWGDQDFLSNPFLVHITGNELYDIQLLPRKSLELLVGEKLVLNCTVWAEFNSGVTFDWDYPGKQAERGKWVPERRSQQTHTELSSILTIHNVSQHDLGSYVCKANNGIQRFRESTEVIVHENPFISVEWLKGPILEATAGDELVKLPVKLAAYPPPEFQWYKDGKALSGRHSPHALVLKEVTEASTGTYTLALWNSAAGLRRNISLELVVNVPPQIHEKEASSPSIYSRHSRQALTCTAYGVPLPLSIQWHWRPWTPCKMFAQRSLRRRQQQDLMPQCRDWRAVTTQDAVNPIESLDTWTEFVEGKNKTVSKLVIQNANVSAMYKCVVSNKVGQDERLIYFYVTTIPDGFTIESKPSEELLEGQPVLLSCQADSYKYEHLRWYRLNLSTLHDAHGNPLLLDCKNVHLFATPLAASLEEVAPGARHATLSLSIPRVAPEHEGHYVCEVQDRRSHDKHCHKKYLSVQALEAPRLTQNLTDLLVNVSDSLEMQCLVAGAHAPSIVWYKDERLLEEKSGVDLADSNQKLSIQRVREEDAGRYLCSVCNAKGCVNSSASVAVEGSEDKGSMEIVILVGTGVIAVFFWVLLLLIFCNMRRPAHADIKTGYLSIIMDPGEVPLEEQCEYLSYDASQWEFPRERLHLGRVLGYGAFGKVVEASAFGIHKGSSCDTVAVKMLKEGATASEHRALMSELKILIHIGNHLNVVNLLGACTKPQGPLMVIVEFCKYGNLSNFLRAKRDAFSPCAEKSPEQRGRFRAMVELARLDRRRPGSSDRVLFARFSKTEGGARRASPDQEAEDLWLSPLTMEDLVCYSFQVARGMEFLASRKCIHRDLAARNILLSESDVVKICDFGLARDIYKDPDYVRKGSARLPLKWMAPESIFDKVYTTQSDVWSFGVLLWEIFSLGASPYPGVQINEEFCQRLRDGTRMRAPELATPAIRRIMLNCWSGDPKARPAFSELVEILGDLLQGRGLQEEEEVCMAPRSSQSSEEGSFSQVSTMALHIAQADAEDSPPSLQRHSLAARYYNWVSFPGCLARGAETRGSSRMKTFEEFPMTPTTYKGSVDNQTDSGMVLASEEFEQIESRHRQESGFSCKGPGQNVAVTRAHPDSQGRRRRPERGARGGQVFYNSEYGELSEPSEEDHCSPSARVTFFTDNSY
T2 sequence (P35968 20-1356): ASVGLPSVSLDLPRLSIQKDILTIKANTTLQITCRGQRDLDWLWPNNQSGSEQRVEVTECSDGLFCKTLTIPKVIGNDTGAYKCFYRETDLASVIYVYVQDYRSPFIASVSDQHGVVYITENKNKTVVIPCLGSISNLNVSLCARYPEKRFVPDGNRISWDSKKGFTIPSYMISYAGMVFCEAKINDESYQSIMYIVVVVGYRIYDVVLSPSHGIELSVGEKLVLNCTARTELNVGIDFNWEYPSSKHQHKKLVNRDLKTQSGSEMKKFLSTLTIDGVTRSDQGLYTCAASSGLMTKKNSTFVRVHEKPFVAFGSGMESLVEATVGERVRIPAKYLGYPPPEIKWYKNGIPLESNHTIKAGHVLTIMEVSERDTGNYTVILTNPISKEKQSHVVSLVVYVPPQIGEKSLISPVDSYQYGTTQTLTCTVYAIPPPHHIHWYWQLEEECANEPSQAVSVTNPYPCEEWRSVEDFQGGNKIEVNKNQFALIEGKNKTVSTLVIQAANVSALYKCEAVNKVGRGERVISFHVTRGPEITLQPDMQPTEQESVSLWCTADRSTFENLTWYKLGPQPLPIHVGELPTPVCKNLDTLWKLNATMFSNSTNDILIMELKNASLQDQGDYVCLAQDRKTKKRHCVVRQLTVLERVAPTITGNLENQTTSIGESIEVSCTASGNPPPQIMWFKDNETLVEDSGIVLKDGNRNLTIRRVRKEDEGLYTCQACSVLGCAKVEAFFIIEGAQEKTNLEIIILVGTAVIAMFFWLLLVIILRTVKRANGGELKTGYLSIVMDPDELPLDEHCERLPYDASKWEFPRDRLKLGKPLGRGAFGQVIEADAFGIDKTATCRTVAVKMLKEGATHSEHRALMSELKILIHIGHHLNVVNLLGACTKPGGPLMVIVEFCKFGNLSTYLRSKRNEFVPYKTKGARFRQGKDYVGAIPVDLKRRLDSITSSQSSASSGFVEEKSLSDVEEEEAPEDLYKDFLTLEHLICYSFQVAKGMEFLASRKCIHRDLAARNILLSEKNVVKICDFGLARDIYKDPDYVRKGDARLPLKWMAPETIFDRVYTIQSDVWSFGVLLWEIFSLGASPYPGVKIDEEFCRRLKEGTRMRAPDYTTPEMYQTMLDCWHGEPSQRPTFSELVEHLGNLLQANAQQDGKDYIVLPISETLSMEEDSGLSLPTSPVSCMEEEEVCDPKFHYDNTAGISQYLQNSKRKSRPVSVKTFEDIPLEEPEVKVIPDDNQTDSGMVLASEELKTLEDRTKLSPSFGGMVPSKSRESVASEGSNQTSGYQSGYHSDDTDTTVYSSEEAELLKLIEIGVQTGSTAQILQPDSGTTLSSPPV

COc1ccc(C#Cc2ccnc3[nH]ccc23)cc1 [compound 89]
> 1000 nM: all assays above

N#Cc1cncc(C#Cc2ccnc3[nH]ccc23)c1 [compound 91]
> 1000 nM: all assays above

C(#Cc1ccnc2[nH]ccc12)c1cccc(-n2cccc2)c1 [compound 92]
> 1000 nM: all assays above

C(#Cc1ccnc2[nH]ccc12)c1ncccn1 [compound 93]
> 1000 nM: all assays above

Cc1cc(C#Cc2ccnc3[nH]ccc23)ccc1C#N [compound 94]
> 1000 nM: all assays above

C#Cc1ccc(C#Cc2ccnc3[nH]ccc23)cc1 [compound 95]
> 1000 nM: all assays above

C#Cc1ccnc2[nH]ccc12 [compound 96]
> 1000 nM: all assays above

C(#Cc1ncnc2sc3c(c12)CCCC3)c1ccccc1 [compound 97]
> 1000 nM: all assays above

C(#Cc1ccnc2[nH]ccc12)c1cccc(-c2ccccc2)c1 [compound 98]
> 1000 nM: all assays above

Nc1cccc(C#Cc2ccnc3[nH]ccc23)c1 [compound 99]
> 1000 nM: all assays above

N#Cc1ccc(C#Cc2ccnc3[nH]ccc23)cc1 [compound 100]
> 1000 nM: all assays above

C(#Cc1ccnc2[nH]ccc12)c1ccccc1-c1cccs1 [compound 101]
> 1000 nM: all assays above

CC(C)Oc1cccc(C#Cc2ccnc3[nH]ccc23)c1 [compound 102]
> 1000 nM: all assays above

C(#Cc1ccnc2[nH]ccc12)c1cccc(Nc2ccccc2)c1 [compound 104]
> 1000 nM: all assays above

FC(F)(F)c1ccccc1C#Cc1cnc2[nH]ccc2c1 [compound 105]
> 1000 nM: all assays above

COC(=O)c1cccc(C#Cc2ccnc3[nH]ccc23)n1 [compound 106]
> 1000 nM: all assays above

FC(F)Oc1ccc(C#Cc2ccnc3[nH]ccc23)cc1 [compound 107]
> 1000 nM: all assays above

C(#Cc1cnc2[nH]ccc2c1)c1ccccc1 [compound 108]
> 1000 nM: all assays above

C[Si](C)(C)C#Cc1ncnc2[nH]ccc12 [compound 109]
> 1000 nM: all assays above

N#Cc1ccc(C#Cc2ccnc3[nH]ccc23)cn1 [compound 110]
> 1000 nM: all assays above

C#Cc1ncnc2[nH]ccc12 [compound 111]
> 1000 nM: all assays above

C[Si](C)(C)C#Cc1ncnc2sc3c(c12)CCCC3 [compound 112]
> 1000 nM: all assays above

O=C(NCc1ccccc1C#Cc1ccnc2[nH]ccc12)Nc1ccccc1 [compound 113]
> 1000 nM: all assays above

Cc1nc(-c2ccc(C#Cc3ccnc4[nH]ccc34)cc2)no1 [compound 114]
> 1000 nM: all assays above

CC(=O)c1ccc(C#Cc2ccnc3[nH]ccc23)nc1 [compound 115]
> 1000 nM: all assays above

FC(F)(F)c1cccc(C#Cc2ccnc3[nH]ccc23)c1 [compound 116]
> 1000 nM: all assays above

Cc1cccc(C)c1C#Cc1ccnc2[nH]ccc12 [compound 117]
> 1000 nM: all assays above

NCc1ccccc1C#Cc1ccnc2[nH]ccc12 [compound 118]
> 1000 nM: all assays above

C(#Cc1ccnc2[nH]ccc12)c1ccc(-c2cnco2)cc1 [compound 119]
> 1000 nM: all assays above

FC(F)(F)Oc1ccc(C#Cc2ccnc3[nH]ccc23)cc1 [compound 120]
> 1000 nM: all assays above

O=C(Cc1ccccc1C#Cc1ccnc2[nH]ccc12)N1CCC(F)(F)CC1 [compound 121]
> 1000 nM: all assays above

COC(=O)c1ccc(C#Cc2ccnc3[nH]ccc23)cc1OC [compound 122]
> 1000 nM: all assays above

FC(F)(F)Oc1cccc(C#Cc2ccnc3[nH]ccc23)c1 [compound 123]
> 1000 nM: all assays above

CN(C)c1ccc(C#Cc2ccnc3[nH]ccc23)cc1 [compound 124]
> 1000 nM: all assays above

CN(C)c1ccc(C#Cc2ncnc3sc4c(c23)CCCC4)cc1 [compound 125]
> 1000 nM: all assays above

C(#Cc1ccnc2[nH]ccc12)c1ccc(-c2cccs2)cc1 [compound 126]
> 1000 nM: all assays above

C(#Cc1ccnc2[nH]ccc12)c1ccccc1-c1ccccc1 [compound 127]
> 1000 nM: all assays above

C(#Cc1ccnc2[nH]ccc12)c1ccc(N2CCOCC2)cc1 [compound 128]
> 1000 nM: all assays above

Nc1cc(C#Cc2ccccc2CNC(=O)C(F)(F)F)ccn1 [compound 129]
> 1000 nM: all assays above

COC(=O)c1ccc(C#Cc2ccnc3[nH]ccc23)cc1 [compound 130]
> 1000 nM: all assays above

C(#Cc1ccnc2[nH]ccc12)c1ccc(-c2nnc(-c3ccccc3)o2)cc1 [compound 131]
> 1000 nM: all assays above

COc1ccc(C#Cc2ccnc(NC(=O)OC(C)(C)C)c2)cc1 [compound 132]
> 1000 nM: all assays above

C(#Cc1ccnc2[nH]ccc12)c1ccc(-c2ccccc2)cc1 [compound 133]
> 1000 nM: all assays above

O=C(c1ccc(C#Cc2ccnc3[nH]ccc23)cc1)C1CC1 [compound 134]
> 1000 nM: all assays above

FC(F)(F)c1ccc(C#Cc2ccnc3[nH]ccc23)cc1 [compound 135]
> 1000 nM: all assays above
